Measured values from patent US9169492B2, “Compositions and methods for enhanced parvovirus transduction” (priority 2011, dated 2015).
Peptide text beside a SMILES is read from it. * marks the point of attachment. Cbz = O=C(OCc1ccccc1)*

What was measured:
FVIII−/− mice [1] = experiment: Canine FVIII activity (Coatest) in plasma of hemophilia A mice after portal vein AAV.cFVIII with or without proteasome inhibitor; type: in vivo, mouse; conditions: for week at which FVIII activity became detectable: AAV2.cFVIII vector, drug rows = co-administered with this vector (FIG. 2C); for enhanced factor VIII expression on average: hemophilia mice
Description: (§1) To avoid anticipated antibody-mediated immune responses to the canine FVIII transgene, all FVIII^−/− mice received cyclophosphamide (Sigma Aldrich, St Louis, Mo.) injected intraperitoneally in 3 doses of 100 μg each on days −3, 0, and +3, as previously described^5.
(§2) Canine FVIII activity in mouse plasma was measured by the Coatest SP4 kit (Chromogenix, DiPharma, West Chester, Ohio) following the manufacture's instruction with modification. Normal canine plasma (regarded as 100 percent activity=1 IU/ml) was serially diluted into FVIII^−/− pooled mouse plasma to generate the standard curve. Neutralizing antibodies to canine FVIII in mouse were measured by the Bethesda assay using a START 4 Coagulation Analyzer as described^42 (Diagnostica Stago, Asnières, France). Human factor IX was measured based on one-stage factor IX activity assay (FIX-specific aPTT) as previously described, using a START 4 Coagulation Analyzer (Diagnostica Stago, Asnières, France)^43.
Studies were carried out to analyze the effect of combination therapy using large transgene cassette FVIII in hemophilic A mice using the same genetic background (C57B1/6). […] Virus was characterized for total particle number by qPCR, virion integrity by electron microscopy, capsid ratio by silver stain, and DNA genome size by alkaline gel electrophoresis.

[2] = Bortezomib dose tolerability in mice without AAV vector; type: in vivo
Description: The primary objective of these studies was to validate in small and large animal “combination therapy” using FDA approved drug bortezomib and AAV transgene vectors. The present studies describe the use of the proteasome inhibitor, bortezomib (also known as Velcade®), as this is the only proteasome inhibitor currently approved for clinical use by the FDA. Bortezomib, like most chemotherapy is dosed based on body surface area. For all large animal studies, the FDA-approved dose of (1.3 mg/m^2) was used. However preclinical toxicity data has established a safe bortezomib dose for mice of 0.5 mg per kilogram of body weight^23. […] Even though the dosing in mice was calculated on a per kilogram body weight basis vs. clinically recommended body surface area, the total dose used in mice is roughly equivalent to total dose used in dog studies described herein.

FIX−/− mice = experiment: Human factor IX activity (one-stage FIX-specific aPTT) in hemophilia B mice after portal vein AAV.hFIX with or without bortezomib; type: in vivo, mouse; conditions: 20 weeks
Description: as §1, §2
Studies were conducted to test the effect of combination therapy using bortezomib on in vivo correction of hemophilic animals. First, a vector carrying a genome approximately the same size as wild type AAV was used for the correction of hemophilia B in a mouse model. […]

FVIII−/− mice [3] = experiment: Liver ALT, AST and complete blood counts in vector-treated hemophilia A mice; type: in vivo, mouse; conditions: mice receiving vector alone or in combination with bortezomib
Excerpt: In these mice, canine factor VIII peaked at 8 weeks, then began to decrease. […] Bortezomib co-administration improved initial and sustained canine factor VIII expression. […] To facilitate comparison of the proteasome inhibitor effect upon vectors generated from wtAAV-sized factor IX transgene and oversized factor VIII transgene, the same time points are graphed in FIGS. 2A and 2B (factor IX) and FIGS. 2C and 2D (factor VIII). Bortezomib treatment was associated with a proportionately greater augmentation of the oversize transgene expression than that of the smaller transgene.

hemophilia A dogs = experiment: Tolerability of vector and bortezomib in hemophilia A dogs; type: in vivo, dog; conditions: no liver transaminase elevations, neurologic symptoms or changes in hematologic parameters
Description: Using identical AAV cFVIII vector cassettes, studies were carried out to determine whether proteasome inhibitor augmentation of the expression of large transgenes translates to the canine hemophilia A model. […] Four hemophilia A pups received the same AAV therapy and received a single I.V. dose of the proteasome inhibitor bortezomib at FDA-approved dose of (1.3 mg/m^2). […] Specifically, no liver transaminase elevations, neurologic symptoms or changes in hematologic parameters were observed.

293T cells = experiment: FACScan analysis of GFP expression in AAV2.GFP-transduced cells with or without bortezomib; type: cell-based; conditions: AAV2.GFP transduction and bortezomib co-administration
Description: 293T cells were grown in Dulbecco's modified Eagle's medium (Mediatech, Herndon, Va.) supplemented with 9% fetal bovine serum and 1% penicillin/streptomycin solution and transduced at a multiplicity of infection of 1. At 3-5 days after transduction, cells were harvested, fixed in phosphate-buffered saline (PBS) containing 2% formaldehyde/0.2% glutaraldehyde, and analyzed by FACScan as previously described^40.

Factor VIII−/− mice = experiment: Expression from codon-optimized AAV8 factor VIII vector with or without bortezomib; type: in vivo, mouse; conditions: ssAAV8 3×10^10 vg/animal portal vein + bortezomib 0.5 mg/kg; persisted 12 weeks
Description: Factor VIII^−/− mice received 3×10^10 vg/animal single strand AAV serotype 8 vector encoding an oversized factor VIII transgene (n=5 mice per treatment group). The canine factor VIII cDNA sequence incorporated in the vector was engineered for optimal mammalian codon usage and GC nucleotide content. Mice received vector infusion to portal vein either alone or in combination with 0.5 mg/kg of proteasome inhibitor bortezomib (PI). While it has been established that codon-optimization increases expression from clotting factor VIII and IX vectors, it was not established whether PI could further augment the more efficient codon-optimized vectors.

[4] = preclinical toxicity data (ref 23); cited from earlier work
[5] = bortezomib co-administered with AAV2 cFVIII vector

Structure (SMILES)	week at which FVIII activity became detectable (FVIII−/− mice [1]) [week]	FVIII expression increased on average vs vector alone (FVIII−/− mice [1]; mouse, in vivo) [%]	effect on factor VIII expression (FVIII−/− mice [1]; mouse, in vivo)	tolerability ([2]; 0.5 mg/kg, without AAV vector)	tolerability ([2]; higher dose 1.0 mg/kg)	higher factor IX activity vs vector alone (FIX−/− mice; bortezomib single dose co-administered with AAV8 factor IX vector) [%]	increase in factor IX expressed vs vector alone (FIX−/− mice; bortezomib single dose with ssAAV2.FIX) [%]	factor VIII activity maintained for a year (FVIII−/− mice [1]; [5])	peak factor VIII activity at week 8 (FVIII−/− mice [1]; [5]) [IU/ml]	persistence of enhanced expression without further proteasome inhibitor treatment (FVIII−/− mice [1]; hemophilic mice) [year]	factor VIII expression higher on average vs AAV8.cFVIII vector alone (FVIII−/− mice [1]; mouse, in vivo) [%]	enhanced factor VIII expression on average (FVIII−/− mice [1]; single dose of bortezomib given with AAV2 factor VIII vector) [%]	enhanced factor VIII expression on average (FVIII−/− mice [1]; single dose of bortezomib given with AAV8 factor VIII vector) [%]	liver ALT, AST and complete blood counts (FVIII−/− mice [3])	tolerability (hemophilia A dogs)	percentage of cells expressing transgene (293T cells)	expression of codon-optimized factor VIII (Factor VIII−/− mice)	safe bortezomib dose for mice [4]
CC(C)C[C@@H](C=O)NC(=O)[C@H](CC(C)C)NC(=O)[C@H](CC(C)C)NC(=O)OCc1ccccc1 [MG-132] (Cbz-Leu-Leu-Leu-aldehyde)	2	> 150	slightly increased factor VIII expression was observed in the first month	–	–	–	–	–	–	–	–	–	–	–	–	–	–	–
CC(C)C[C@H](NC(=O)[C@H](Cc1ccccc1)NC(=O)c1cnccn1)B(O)O [bortezomib]	1	> 550	–	tolerated the proteasome inhibitors without apparent side effect or change in hematologic parameters	occasionally mice receiving this dose displayed decreased activity and feeding	~24	83	more than 3%	0.11±0.06	> 1	259	~600	~300	did not show any evidence of hepatic or hematologic toxicity	well tolerated	increase	augmented expression	0.5 mg per kilogram of body weight
